Source: patent US11439646B2, “Anti-proliferative agents for treating PAH” (Pfizer Inc., priority 2016, dated 2022)

Tests used:
hPASMC = assay: EdU cell proliferation assay, hPASMC; format: cell-based; conditions: Homo sapiens, 5% FBS, N = 6, FIG. 1e, read-out: hPASMC IC50 (nM), inhibition of proliferation
Method: (§1) Alternatively, rather than using BrdU, EdU (5-ethynyl-2′-deoxyuridine) can be used. Cells were first pre-incubated with different concentrations of the CDK inhibitor for 30 minutes, and then 5% FBS was added to stimulate cell proliferation. Cells were maintained for 24 h before the proliferation rate was evaluated using EDU Click-iT EdU Alexa Fluor® 647 HCS Assay (Thermofisher Scientific, USA). EdU was added to the medium 16 h before the quantification of EdU incorporation. Proliferation was quantified by scanning the 96-well plates using automated high content imaging platform equipped with appropriate fluorescence microscopic filters for DAPI (4′,6-Diamidino-2-Phenylindole) or Hoechst stain and Cyanine5 dyes as part of the Click-iT assay. Proliferating EdU positive cells detected at Cyanine5 were quantified and normalized to total cell number per well where the total cell number per cell was identified by DAPI or Hoechst signal. The % effect was then calculated:
(§2) The average (avg) amount (amt) of proliferating cells per concentration of CDK inhibitor with FBS present.
(§3) The minimum amount of proliferation (min amt of prolif'n) is based on cell numbers in the wells where FBS is not added and no CDK inhibitor is present.
(§4) The maximum amount of proliferation (max amt of prolif'n) is based on cell numbers in the wells where FBS is added and no CDK inhibitor is present.

hPAAF = assay: EdU cell proliferation assay, hPAAF; format: cell-based; conditions: Homo sapiens, 5% FBS, N = 6, FIG. 1f, read-out: hPAAF IC50 (nM), inhibition of proliferation
Method: as §1, §2, §3, §4

rPASMC = assay: EdU cell proliferation assay, rPASMC; format: cell-based; conditions: Rattus norvegicus, 5% FBS, N = 6, FIG. 1g, read-out: rPASMC IC50 (nM), inhibition of proliferation
Method: as §1, §2, §3, §4

phospho-Rb (Ser807/811) = assay: In-cell western analysis of Rb phosphorylation in human PASMCs; format: cell-based; conditions: Homo sapiens, PASMC; 10% FBS; N = 6; FIG. 2c; read-out: Average IC50 (nM), inhibition of phosphorylation of Rb in hPASMCs
Method: In-cell western analysis. Primary PASMCs from normal human subjects were cultured and serum-starved as described above. Cells were first pre-incubated with different concentrations of palbociclib for 60 minutes, and then either 5% FBS or 10% FBS or 30 ng/ml PDGF-BB was added to stimulate cell proliferation and Rb phosphorylation. The effect of Palbociclib on Rb phosphorylation was evaluated 24 h later, using in-cell western assay according to the manufacturer's instructions (Li-Cor Biosciences, Lincoln, Nebr., USA). Phosphorylated Rb was measured using a rabbit monoclonal antibody anti-phospho-Rb (Ser807/811) (Cell Signaling Technology, Inc., Danvers, Mass., USA), followed by detection with IRDye 800CW infrared fluorescent dye-labeled goat anti-rabbit secondary antibody. Actin levels were measured using mouse anti-actin monoclonal antibodies (pan Ab-5) (Fisher Scientific Pittsburgh, Pa., USA; Sigma Aldrich, St. Louis, Mo., USA), and followed by detection with IRDye 680RD-labeled goat anti-mouse secondary antibody. See FIG. 2a where 5% FBS was used, FIG. 2b where PDGF-BB was used, and FIG. 2c where 10% FBS was used.

rat Su5416/Hx PAH model = assay: Rat SuHx (Su5416/hypoxia)-induced PAH model (hemodynamics, histomorphometry, IHC); format: in vivo; conditions: for lung weight vs vehicle/Su5416/Hx group / vessel-associated Ki67+ cells in the pulmonary vasculature (IHC) / vessel-associated pRb+ cells in the pulmonary vasculature (IHC): days 7 to 28; for MPAP: days 7 to 28, FIG. 4b; for Fulton Index: days 7 to 28, FIG. 4c; for muscularized intra-acinar vessel density relative to vehicle/Su5416/Hx group: days 7 to 28, FIG. 4e; for DPAP: days 7 to 28, FIG. 4i; for heart weight vs vehicle/Su5416/Hx group: days 7 to 28, FIG. 4j; for average vessel wall thickness, intra-acinar and pre-acinar vessels: days 7 to 28, FIG. 4d
Method: SuHx-induced Pulmonary Arterial Hypertension: Sprague-Dawley rats were obtained from Charles River Laboratories (200-300 g; vehicle control, n=5; all other groups, n=10). Rats received Semaxinib dissolved in DMSO on day 0, followed by housing in low (13%) oxygen until day 28. Sildenafil (30 mg/kg/dose; BID), Riociguat (10 mg/kg, QD) or Palbociclib (100 mg/kg; QD) was administered in vehicle (0.5% methylcellulose) from days 7-28. Terminal hemodynamic evaluations and necropsy were conducted on day 28 in a manner similar to the MCT study.
Hemodynamic measurements Su/Hx study: On day 28, animals were anesthetized via intramuscular injection of ketamine/xylazine (80/10 mg/kg). A Millar catheter was inserted into the pulmonary artery and pulmonary pressure and hemodynamics were measured as described by Stringer et al., (1981) Catheterization of the pulmonary artery in the closed-chest rat. J. Appl. Physiol. 51, 1047-1050. Hemodynamic values were calculated using the NOTOCORD-Hem software (NOTOCORD, Inc., Croissy sur Sienne, France) (CorDynamics).
(§5) Measurement of RV hypertrophy. After collection of the heart at necropsy, the atria and great vessels were removed. The RV was separated from the LV and S. The wet weights of the RV and LV+S were measured to calculate the Fulton Index.
(§6) Tissue preparation. Under anesthesia, the animals were exsanguinated, and the pulmonary circulation flushed with oxygenated (animals from Example 3 [MCT]) or heparizined (animals from Example 4 [Su5416/Hx]) saline. Trachea, lungs, and heart were removed intact from thoracic cavity and placed in ice-cold saline. Right lung lobes were removed, weighed, and immediately flash frozen in liquid nitrogen. A 10 mL syringe filled with fixative (10% NBF) with attached blunt tip needle (20 g) was used to inflate the left lung lobe and the airway was tied off to keep it consistently expanded. The left lung was then immersion fixed in 10% NBF for 48 hrs and then transferred to 70% EtOH for ≤5 days.
(§7) Histomorphometric analysis. Three, 3-5 μm thick, transverse sections of the left lung lobe were used for histomorphometric analysis. Overall disease severity scores were determined by light microscopic evaluation of hematoxylin and eosin (H&E)-stained lung sections by a board-certified veterinary pathologist. Scores ranged from 0 (absent), 1 (minimal), 2 (mild), 3 (moderate), 4 (marked) to 5 (severe) and were assigned according to the approximate percentage of the tissue affected by the tissue changes (inflammatory, degenerative, vascular and/or proliferative) characteristic of the PAH model. Average vessel wall thickness was evaluated using lung sections prepared with a modified Verhoeff-van Gieson elastin stain. Image analysis was performed using random field sampling (Visiopharm newCAST) of 10% of tissue area with observer-assisted identification of intra-acinar and pre-acinar vessels and application of a nucleator probe to measure vessel wall thickness. Fully muscularized intra-acinar vessel density was evaluated in a similar manner using dual αSMA/Ki67 IHC-stained sections and observer-assisted counting of ≥70% muscularized (i.e. SMA^+), transversely sectioned, ≤50 μm external diameter, intra-acinar vessels with an identifiable lumen. Vessel-associated Ki67^+ and pRb^+ cells were counted in αSMA/Ki67 IHC-and CD31/pRb IHC-stained lung sections, respectively, using random field sampling of 10% of tissue area and observer-assisted identification of Ki67^+ or pRb^+ cells associated with the walls (i.e. in the intima or media) of vessels 100 μm external diameter.
Immunohistochemistry. Dual α-SMA/Ki67 nuclear antigen: All IHC steps were performed on 3 μm-thick, formalin-fixed, paraffin-embedded (FFPE) sections on Leica Bond Rx automated immunohistochemistry stainer. The instrument was programmed to bake and dewax the slides. […]

[1] = tested on: Rat MCT-induced PAH Model; assay: Rat MCT-induced PAH model (hemodynamics, histomorphometry, IHC); format: in vivo
Method: Rat MCT-induced PAH Model: Male Sprague-Dawley rats (Charles River Laboratories) (260-280 g; vehicle control group, n=6; all other groups, n=15) received MCT (50 mg/kg, SC; 1 ml/kg BVV) dissolved in vehicle (33.3% 1 N HCl, 14.8% 1 N NaOH, 52.2% diH2O) or vehicle alone on day 0. Sildenafil (50 mg/kg/dose; BID) was administered (5 ml/kg, PO) either prophylactically from days 0-28 or therapeutically from days 14-28. Palbociclib (100 mg/kg; QD) was administered therapeutically (days 14-28). Both sildenafil and palbociclib were resuspended in vehicle (0.5% methylcellulose) and administered orally (5 ml/kg). On day 28, animals were anesthetized via isoflurane, hemodynamic parameters were evaluated, and tissues harvested after euthanasia.
Hemodynamic measurements—monocrotaline (MCT) study: On day 28, animals were anesthetized via 2% isofluorane in positive pressure ventilator. Pulmonary hemodynamics were measured using a pre-calibrated pressure transducer in isoflurane positive-pressure ventilated animals. Steady-state pulmonary and systemic arterial pressures were measured using a Millar Solid State Mikro-tip catheter (Millar Instruments, Houston, Tex.) introduced to the pulmonary arterial trunk at the level of the aortic arch via the right carodid artery. Hemodynamic values were automatically calculated by the physiological data acquisition system, ADI Chart (ADI Instruments, Colorado Springs, Colo.) (Plato BioPharma).
as §5, §6, §7
Immunohistochemistry. […]

[2] = day 0-28, score scale 0-5, FIG. 3g

| IC50 (phospho-Rb (Ser807/811)) [nM] | Structure (SMILES) | IC50 (hPASMC) [nM] | IC50 (hPAAF) [nM] | IC50 (rPASMC) [nM] | lung weight vs vehicle/Su5416/Hx group (rat Su5416/Hx PAH model) | vessel-associated Ki67+ cells in the pulmonary vasculature (IHC) (rat Su5416/Hx PAH model) | vessel-associated pRb+ cells in the pulmonary vasculature (IHC) (rat Su5416/Hx PAH model) | MPAP (rat Su5416/Hx PAH model) | Fulton Index (rat Su5416/Hx PAH model) | muscularized intra-acinar vessel density relative to vehicle/Su5416/Hx group (rat Su5416/Hx PAH model) | DPAP (rat Su5416/Hx PAH model) | heart weight vs vehicle/Su5416/Hx group (rat Su5416/Hx PAH model) | average vessel wall thickness, intra-acinar and pre-acinar vessels (rat Su5416/Hx PAH model) | further results |
| --- | --- | --- | --- | --- | --- | --- | --- | --- | --- | --- | --- | --- | --- | --- |
| 262 | CCN1CCN(Cc2ccc(Nc3ncc(F)c(-c4cc(F)c5nc(C)n(C(C)C)c5c4)n3)nc2)CC1 [Abemaciclib, 2-pyrimidinamine, N-(5-((4-ethyl-1-piperazinyl)methyl)-2-pyridinyl)-5-fluoro-4-(4-fluoro-2-methyl-1-(1-methylethyl)-1H-benzimidazol-6-yl)] | 6.5 | 1.2 | 13 | – | – | – | – | – | – | – | – | – | – |
| 352 | CN(C)C(=O)c1cc2cnc(Nc3ccc(N4CCNCC4)cn3)nc2n1C1CCCC1 [Ribociclib, 7-cyclopentyl-N, N-dimethyl-2-((5-(piperazin-1-yl)pyridin-2-yl)amino)-7H-pyrrolo[2,3-d]pyrimidine-6-carboxamide] | 0.5 | 0.8 | 28.6 | – | – | – | – | – | – | – | – | – | – |
| – | COC(=O)N(C)c1c(N)nc(-c2nn(Cc3ccccc3F)c3ncccc23)nc1N [Riociguat] | – | – | – | no change | no significant beneficial effect | no significant beneficial effect | significantly reduced | only a slight reduction | not statistically significantly different | significantly reduced | no change | not | – |
| – | CCCc1nn(C)c2c(=O)[nH]c(-c3cc(S(=O)(=O)N4CCN(C)CC4)ccc3OCC)nc12 [Sildenafil] | – | – | – | no change | no significant beneficial effect | no significant beneficial effect | significantly reduced | only a slight reduction | not statistically significantly different | significantly reduced | no change | not | density of fully muscularized intra-acinar vessels (αSMA staining) ([1]; day 0-28, FIG. 3e): effective; average vessel wall thickness relative to vehicle/MCT group ([1]; day 0-28, FIG. 3d): 0.76 x MCT; disease severity scores, mean [1, 2]: 2.5; disease severity scores, range [1, 2]: 1-4; average vessel wall thickness (elastin staining), intra-acinar and pre-acinar pulmonary arteries, relative to vehicle/MCT group ([1]; day 14-28, FIG. 3d): little effect; PAH-related increase in MPAP ([1]; dosed prophylactically day 0-28, sildenafil 50 mg/kg/dose PO BID, FIG. 3b): significantly reduced; PAH-related increase in Fulton Index ([1]; prophylactic day 0-28, FIG. 3c): significantly reduced; PAH-related increase in DPAP ([1]; prophylactic day 0-28, FIG. 3i): significantly reduced; PAH-related increase in heart weight ([1]; prophylactic day 0-28, FIG. 3j): significantly reduced; PAH-related increase in SPAP ([1]; prophylactic day 0-28, FIG. 3h): significantly reduced; DPAP ([1]; therapeutic day 14-28): small and non-significant reduction; Fulton Index ([1]; therapeutic day 14-28): small and non-significant reduction; MPAP ([1]; therapeutic day 14-28): small and non-significant reduction; SPAP ([1]; therapeutic day 14-28): small and non-significant reduction; heart weight ([1]; therapeutic day 14-28): small and non-significant reduction; SPAP (rat Su5416/Hx PAH model; days 7 to 28, FIG. 4h): significantly reduced |
